Laboratory results reported in patent US9364551B2, “Light-enabled drug delivery” (Virginia Commonwealth University, priority 2011, dated 2016).
Where a name gives a salt, the structure may show the parent alone. Read-outs that look alike come from different tables or passages of the source. Where no end group is shown, it is not given here. [ ]: non-standard residue; d: D form. bis‑iodoacetamido azobenzene = bis-iodoacetamido azobenzene crosslinker; Aib = CC(C)(N)C(=O)O

Assays:
JH-EsoAd1 cells [1] = experiment: Concentration dependent cell viability (MTT assay); format: cell-based
Description: (§1) The Esophageal cancer cell line (JH-EsoAd1) was cultured at 37° C. and in a humidified atmosphere of 5% CO2 in RPMI 1640 medium supplemented with 10% fetal bovine serum (FBS). For 96 well plate experiments, the JH-EsoAd1 cells were seeded at 4450 cells/well in 100 uL of media in 96 well plates; experiments were carried out one day after seeding. MTT assays were analyzed using a Bio-Tex μQuant plate reader at 562 nm. FACS was performed BD FACS Aria II using BD FACS Diva software at the VCU Flow Cytometry Core Facility. A minimum of 20,000 cells within the gated region were analyzed. Confocal microscopy images were acquired at room temperature with a Leica confocal laser scanning microscope.
(§2) JH-EsoAd1 cells were treated with media alone, media supplemented with EDANS (20 μM), or media supplemented with Dox-EDANS (9) (20 μM) in a 96 well clear-bottom, opaque plate. Cells were exposed to light (9 mW/cm^2) for various times (0-40 min) regulated by an aluminum foil mask. During the experiment the plate was kept in ice to reduce the heating by the UV lamp. After the lamp was turned off, the plate was covered with foil and placed at room temperature for an additional 80 min. The media was removed, and the cells were thoroughly washed with media (3×); then 200 μL of fresh media was added to each well. The plates were incubated for 72 hours at 37° C., following which the media was removed and 100 µL of MTT (2 mg/ml) in phosphate buffered saline (PBS) was added to each well. After 3 hours, the MTT solution was removed and replaced with 100 μL of DMSO. The absorbance at 562 nm was analyzed via a plate reader.
JH-EsoAd1 cells were treated with media supplemented with various concentrations of doxorubicin (0-6.4 μM) or Dox-EDANS (9) (0-16 μM) in a 96 well clear-bottom, opaque plate. Control wells were covered with aluminum foil while the remaining wells were exposed UV light (9 mW/cm^2) for 20 min. The plate was kept in ice during light exposure in order to minimize the heating. After irradiation, the plate was kept at it in the dark for another 100 minutes. […]

[2] = HPLC monitoring of azobenzene cis to trans thermal relaxation after illumination; format: physicochemical; details: fit to exponential decay
Description: We also monitored the switching of the azobenzene by HPLC, since we were able to separate both the cis and trans peptide isomers (FIG. 19B). After illumination the cis isomer reverted to the trans isomer over time. […] The half-life is in line with measurements of similar peptides, but the % cis is lower than the typical 80-95%. Use of a filter to eliminate the longer wavelength light (our light source has a spike of intensity at 405 nm which can promote cis to trans reversion) would enhance photoswitching upon irradiation.

[3] = CD spectra of photoswitching; format: physicochemical
JH-EsoAd1 cells [4] = experiment: Illumination time-dependent toxicity (MTT assay); format: cell-based
Description: as §1
as §2, with “The plates were incubated for 72 hours at 37° C., following which the media was removed and 100 µL of MTT (2 mg/ml) in phosphate buffered saline (PBS) was added to each well. After 3 hours, the MTT solution was removed and replaced with 100 μL of DMSO.” left out

JH-EsoAd1 cells [5] = experiment: Confocal microscopic analysis of permeability; format: cell-based; details: 10 μM, light-treated cells vs dark
Description: as §1
JH-EsoAd1 cells were seeded at 30,000 cells/well on 4 well glass chamber slides, and were treated as above (Flow cytometry analysis). The cells were treated with media alone or media supplemented with 10 μM of EDANS-Dox (6). The plate was placed on ice, and the light treated cells were exposed to UV light (9 mW/cm^2) for 20 minutes. Following the light exposure the plates were kept at room temperature for 100 minutes. The cells were washed extensively with PBS and fixed for 15 min at 37° C. with 3% paraformaldehyde in PBS. Slides were rinsed, dried and mounted under coverslips using Vectashield mounting media (Vector Laboratories, Inc.).

[6] = Photolytic release of doxorubicin from drug conjugate (RP-HPLC); format: physicochemical; details: PBS buffer, UV light 365 nm (9.0 mW/cm^2), 0.5-30 min
Description: The photolytic release of doxorubicin from the drug conjugate was analyzed using HPLC. The drug conjugate was dissolved in PBS buffer and was exposed to UV light at 365 nm (9.0 mW/cm^2). Aliquots of the reaction mixture were collected at various times and were analyzed on RP-HPLC.
A solution (0.065 mM in 1 mL) of compound 6 in PBS was placed in a 60×15 mm well plastic dish placed on ice. The solution was irradiated and 70 μL was removed at various time points (0.5, 1, 2, 4, 8, 15, 20, and 30 minutes). Each assay was analyzed on RP-HPLC using isocratic elution of 20% organic eluent (0.1% TFA in acetonitrile) for 5 minutes and then using gradient elution from 20% to 70% for 30 minutes and was monitored at λabs=480 nm. (See FIG. 14).

COc1cccc2c1C(=O)c1c(O)c3c(c(O)c1C2=O)C[C@@](O)(C(=O)CO)C[C@@H]3O[C@H]1C[C@H](N)[C@H](O)[C@H](C)O1 [Dox, Doxorubicin Hydrochloride, reference compound]
IC50 (JH-EsoAd1 cells [1]; Dox alone, read-out: IC50 of Dox alone with the JH-EsoAd1 cells): 1 ± 0.4 µM

*CRACARVXAACRAAARQ (RACARV[Aib]AACRAAARQ; linker (positions not given here) via bis‑iodoacetamido azobenzene; not fully specified (N-terminus, bridges); also: bis-iodoacetamido azobenzene crosslink, Cys pair not given here) [Peptide 1, arginine-rich photoswitchable peptide, cysteines crosslinked with bis-iodoacetamido azobenzene; X=2-aminoisobutyric acid]
percentage of cis isomer upon illumination [2]: 55%
conformation upon irradiation (CD) ([3]; 370 nm light, 25° C., illumination for 5 min): more α-helical
conformation after removal of light (CD) ([3]; after 30 minutes in the dark): reverted mostly back to the more random coiled state

COc1cc(C(C)OC(=O)NC2C[C@H](OC3C[C@](O)(C(=O)CO)Cc4c(O)c5c(c(O)c43)C(=O)c3c(OC)cccc3C5=O)C[C@@H](C)[C@H]2O)c([N+](=O)[O-])cc1OCCCC(=O)NCc1cn(-c2ccc(C(=O)NCCNc3cccc4c(S(=O)(=O)O)cccc34)cc2)nn1 (stereo partly shown) [EDANS-Dox, Photocaged-Cell Impermeable Dox. Conjugate]
IC50 (JH-EsoAd1 cells [1]; 20 min, illumination 365 nm, 9.0 mW/cm^2, 20 min, read-out: IC50, cytotoxicity upon illumination): 1.6 ± 1 µM
toxicity to the cells in the dark (JH-EsoAd1 cells [1]; in the dark, at the highest value tested (16 µM)): not toxic
Survival of cells in the dark (JH-EsoAd1 cells [4]; in the dark): equivalent to controls with no drug added
Cell survival with increased illumination (JH-EsoAd1 cells [4]; light 9 mW/cm^2, 0-40 min): decreased survival
Dox fluorescence in the nucleus (confocal) (JH-EsoAd1 cells [5]): only light-treated cells show significant Dox fluorescence in the nucleus
photolytic release of doxorubicin [6]: time-depended drug release in the presence of light
